Measured values from article PMC9486541, “Design, synthesis and cytotoxic evaluation of novel betulonic acid-diazine derivatives as potential antitumor agents” (Frontiers in Chemistry, 2022).
Read-outs that look alike come from different tables or passages of the source.

Legend:
[1] = system: HepG2; experiment: MTT assay, HepG2 cells; format: cell-based, human; details: read-out: Half maximal inhibitory concentration (IC50) values, HepG2
Text: (§1) The human hepatocellular carcinoma cell line (HepG2), human hepatocellular carcinoma cell line (Bel-7402), human cervical cancer cell line (Hela), human breast adenocarcinoma cell line (MCF-7) and Madin-Darby canine kidney cell line (MDCK) were obtained from the Chinese Academy of Medical Sciences and Peking Union Medical College. Cultures were maintained as monolayer in RPMI-1640/DMEM supplemented with 10% (v/v) fetal bovine serum (FBS) and 1% (v/v) penicillin/streptomycin (Thermo Technologies, New York, NY, United States) under a humidified atmosphere containing 5% CO2 at 37°C. The BoA derivatives and positive control drugs (BoA and DDP) under study were dissolved in DMSO (Sigma, St. Louis, MO, United States) and added at required concentrations to the cell culture. Cells incubated without the preparations served as the control.
(§2) The antitumor activity was assessed by MTT assay, as previously reported ([Fang et al., 2018]). Each tested compound and positive control drugs were dissolved in DMSO and diluted with the medium to the test concentrations, and the final concentration of DMSO in the culture medium was controlled at less than 0.5% (v/v). Briefly, cells were cultured at 37°C and dispersed in replicates in 96-well plates with HepG2, Bel-7402, HeLa, MCF-7 and MDCK for 24 h. Fresh medium along with compounds (BoAA-BoAE, BoA2A-BoA2G, BoA3A-BoA3G, BoA4A-BoA4G) at different concentrations was then added to individual wells and incubated for 72 h, with BoA and DDP as the positive control. Experiments on FXR expression were separated into three groups: Control (PBS), BoA2C (8 μM), and BoA2C (8 μM) + DY268 (10 μM) ([Giordano et al., 2016]), with three repeating wells in each. In separate wells, BoA2C and DY268 were introduced and cultured for 72 h. After 72 h, the cell was incubated with MTT solution (0.5 mg/ml) for an additional 4 h at 37°C. The produced formazan crystals were solubilized with DMSO, and the optical density of solution was measured at 570 nm using a plate reader (BIORAD 550 spectrophotometer, Bio-rad Life Science Development Ltd., Beijing, China). Wells without drugs were used to be blanks. The IC50 values were defined as the concentration of compounds that produced a 50% proliferation inhibition of surviving cells and calculated using the Graph Pad Prism 5. The inhibitory rate was calculated in the following Equation 1, where OD is the optical density: % inhibition=[1−(OD Sample group−OD Blank group)/(OD Control group−OD Blank group)]×100% (1)

[2] = system: Bel-7402; experiment: MTT assay, Bel-7402 cells; format: cell-based, human; details: read-out: Half maximal inhibitory concentration (IC50) values, Bel-7402
Text: as §1, §2

[3] = system: Hela; experiment: MTT assay, Hela cells; format: cell-based, human; details: 72 h incubation, read-out: Half maximal inhibitory concentration (IC50) values, Hela
Text: as §1, §2

[4] = system: MDCK; experiment: MTT assay, MDCK normal cell line; format: cell-based, canine; details: 72 h incubation, normal cell line, read-out: Half maximal inhibitory concentration (IC50) values, MDCK
Text: as §1, §2

[5] = system: MCF-7; experiment: MTT assay, MCF-7 cells; format: cell-based, human; details: read-out: Half maximal inhibitory concentration (IC50) values, MCF-7
Text: as §1, §2

[6] = Homo sapiens, HepG2, 72 h incubation
[7] = Homo sapiens, Bel-7402, 72 h incubation
[8] = Homo sapiens, MCF7, 72 h incubation

| SMILES | IC50 [1, 6] [µM] | IC50 [2, 7] [µM] | IC50 ([3]; Homo sapiens, HeLa) [µM] | melting point [°C] | IC50 ([4]; Canis lupus familiaris, MDCK) [µM] | IC50 [5, 8] [µM] | IC50 ([1]; 72 h incubation) [µM] | IC50 ([2]; 72 h incubation) [µM] | IC50 [3] [µM] | IC50 [4] [µM] | IC50 ([5]; 72 h incubation) [µM] |
| --- | --- | --- | --- | --- | --- | --- | --- | --- | --- | --- | --- |
| C=C(C)[C@@H]1CC[C@]2(C(=O)OCCOC(=O)c3cnccn3)CC[C@]3(C)[C@H](CC[C@@H]4[C@@]5(C)CCC(=O)C(C)(C)[C@@H]5CC[C@]43C)[C@@H]12 [BoA2A, (Pyrazin-2-acyloxy)-ethyl-3-oxolup-20(29)-en-28-oate] | 13.7 ± 0.25 | 8.76 ± 0.84 | 25 ± 0.97 | 85 to 87 | > 30 | 9.86 ± 0.36 |  |  |  |  |  |
| C=C(C)[C@@H]1CC[C@]2(C(=O)OCCOC(=O)c3nccnc3C)CC[C@]3(C)[C@H](CC[C@@H]4[C@@]5(C)CCC(=O)C(C)(C)[C@@H]5CC[C@]43C)[C@@H]12 [BoA2B, (3-Methylpyrazin-2-acyloxy)-ethyl-3-oxolup-20(29)-en-28-oate] | 13.4 ± 1.82 | 10.1 ± 1.4 | 15.5 ± 0.81 | 60 to 62 | > 30 | > 30 |  |  |  |  |  |
| C=C(C)[C@@H]1CC[C@]2(C(=O)OCCOC(=O)c3cncc(C)n3)CC[C@]3(C)[C@H](CC[C@@H]4[C@@]5(C)CCC(=O)C(C)(C)[C@@H]5CC[C@]43C)[C@@H]12 [BoA2D, (6-Methylpyrazin-2-acyloxy)-ethyl-3-oxolup-20(29)-en-28-oate] | 7.32 ± 2.88 | 8.22 ± 0.43 | 14.9 ± 1.84 | 139 to 141 | > 30 | 8.32 ± 1.28 |  |  |  |  |  |
| C=C(C)[C@@H]1CC[C@]2(C(=O)OCCOC(=O)c3ccncn3)CC[C@]3(C)[C@H](CC[C@@H]4[C@@]5(C)CCC(=O)C(C)(C)[C@@H]5CC[C@]43C)[C@@H]12 [BoA2F] | > 30 | > 30 | 15.2 ± 1.07 | 72 to 74 | 12.5 ± 1.22 | 29.7 ± 0.37 |  |  |  |  |  |
| C=C(C)[C@@H]1CC[C@]2(C(=O)OCCOC(=O)c3ccnnc3)CC[C@]3(C)[C@H](CC[C@@H]4[C@@]5(C)CCC(=O)C(C)(C)[C@@H]5CC[C@]43C)[C@@H]12 [BoA2G] | > 30 | 24.8 ± 2.43 | 5.81 ± 0.24 | 130 to 132 | 13 ± 0.46 | > 30 |  |  |  |  |  |
| C=C(C)[C@@H]1CC[C@]2(C(=O)OCCCOC(=O)c3cnccn3)CC[C@]3(C)[C@H](CC[C@@H]4[C@@]5(C)CCC(=O)C(C)(C)[C@@H]5CC[C@]43C)[C@@H]12 [BoA3A, (Pyrazin-2-acyloxy)-propyl-3-oxolup-20(29)-en-28-oate] | 4.82 ± 0.3 | 6.09 ± 0.12 | 20.4 ± 0.56 | 74 to 76 | > 30 | 6.85 ± 1.82 |  |  |  |  |  |
| C=C(C)[C@@H]1CC[C@]2(C(=O)OCCCOC(=O)c3nccnc3C)CC[C@]3(C)[C@H](CC[C@@H]4[C@@]5(C)CCC(=O)C(C)(C)[C@@H]5CC[C@]43C)[C@@H]12 [BoA3B, (3-Methylpyrazin-2-acyloxy)-propyl-3-oxolup-20(29)-en-28-oate] | 13.2 ± 1.2 | 14.2 ± 2.1 | 15.7 ± 2.15 | 54 to 55 | > 30 | 27.9 ± 1.06 |  |  |  |  |  |
| C=C(C)[C@@H]1CC[C@]2(C(=O)OCCCOC(=O)c3cnc(C)cn3)CC[C@]3(C)[C@H](CC[C@@H]4[C@@]5(C)CCC(=O)C(C)(C)[C@@H]5CC[C@]43C)[C@@H]12 [BoA3C, (5-Methylpyrazin-2-acyloxy)-propyl-3-oxolup-20(29)-en-28-oate] | > 30 | 9.37 ± 1.31 | 30 ± 2.65 | 57 to 58 | > 30 | 10 ± 0.19 |  |  |  |  |  |
| C=C(C)[C@@H]1CC[C@]2(C(=O)OCCCOC(=O)c3cncc(C)n3)CC[C@]3(C)[C@H](CC[C@@H]4[C@@]5(C)CCC(=O)C(C)(C)[C@@H]5CC[C@]43C)[C@@H]12 [BoA3D, (6-Methylpyrazin-2-acyloxy)-propyl-3-oxolup-20(29)-en-28-oate] | 8.65 ± 0.6 | 6.42 ± 0.66 | 9.5 ± 0.28 | 59 to 60 | 17 ± 3.01 | 5.6 ± 0.25 |  |  |  |  |  |
| C=C(C)[C@@H]1CC[C@]2(C(=O)OCCCOC(=O)c3nc(C)c(C)nc3C)CC[C@]3(C)[C@H](CC[C@@H]4[C@@]5(C)CCC(=O)C(C)(C)[C@@H]5CC[C@]43C)[C@@H]12 [BoA3E, (3,5,6-Trimethylpyrazin-2-acyloxy)-propyl-3-oxolup-20(29)-en-28-oate] | 20.2 ± 0.53 | 11.2 ± 1.55 | 10.1 ± 0.15 | 57 to 59 | > 30 | 29.5 ± 0.89 |  |  |  |  |  |
| C=C(C)[C@@H]1CC[C@]2(C(=O)OCCCOC(=O)c3ccncn3)CC[C@]3(C)[C@H](CC[C@@H]4[C@@]5(C)CCC(=O)C(C)(C)[C@@H]5CC[C@]43C)[C@@H]12 [BoA3F] | > 30 | 22.3 ± 5.85 | 21.1 ± 6.66 | 50 to 52 | 17.9 ± 0.82 | > 30 |  |  |  |  |  |
| C=C(C)[C@@H]1CC[C@]2(C(=O)OCCCOC(=O)c3ccnnc3)CC[C@]3(C)[C@H](CC[C@@H]4[C@@]5(C)CCC(=O)C(C)(C)[C@@H]5CC[C@]43C)[C@@H]12 [BoA3G] | > 30 | 25.2 ± 2.44 | 4 ± 0.32 | 68 to 71 | 18.5 ± 0.42 | 13.4 ± 0.51 |  |  |  |  |  |
| C=C(C)[C@@H]1CC[C@]2(C(=O)OCCCCOC(=O)c3cnc(C)cn3)CC[C@]3(C)[C@H](CC[C@@H]4[C@@]5(C)CCC(=O)C(C)(C)[C@@H]5CC[C@]43C)[C@@H]12 [BoA4C, (5-Methylpyrazin-2-acyloxy)-butyl-3-oxolup-20(29)-en-28-oate] | 22.2 ± 1.76 | 5.53 ± 0.46 | 17.9 ± 0.45 |  | > 30 | 9.88 ± 1.49 |  |  |  |  |  |
| C=C(C)[C@@H]1CC[C@]2(C(=O)OCCCCOC(=O)c3cncc(C)n3)CC[C@]3(C)[C@H](CC[C@@H]4[C@@]5(C)CCC(=O)C(C)(C)[C@@H]5CC[C@]43C)[C@@H]12 [BoA4D, (6-Methylpyrazin-2-acyloxy)-butyl-3-oxolup-20(29)-en-28-oate] | > 30 | 16.3 ± 0.9 | 15.7 ± 2.15 |  | > 30 | > 30 |  |  |  |  |  |
| C=C(C)[C@@H]1CC[C@]2(C(=O)OCCCCOC(=O)c3ccncn3)CC[C@]3(C)[C@H](CC[C@@H]4[C@@]5(C)CCC(=O)C(C)(C)[C@@H]5CC[C@]43C)[C@@H]12 [BoA4F] | 30.2 ± 1.51 | > 30 | 25.9 ± 0.57 |  | 27.22 ± 0.25 | 24.5 ± 5.17 |  |  |  |  |  |
| C=C(C)[C@@H]1CC[C@]2(C(=O)OCCCCOC(=O)c3ccnnc3)CC[C@]3(C)[C@H](CC[C@@H]4[C@@]5(C)CCC(=O)C(C)(C)[C@@H]5CC[C@]43C)[C@@H]12 [BoA4G, (Pyridazin-2-acyloxy)-butyl-3-oxolup-20(29)-en-28-oate] | 29.27 ± 0.22 | 19.4 ± 1.2 | 7.46 ± 1.99 |  | 16.9 ± 1.03 | 12.8 ± 0.15 |  |  |  |  |  |
| C=C(C)[C@@H]1CC[C@]2(C(=O)O)CC[C@]3(C)[C@H](CC[C@@H]4[C@@]5(C)CCC(=O)C(C)(C)[C@@H]5CC[C@]43C)[C@@H]12 [BoA, betulonic acid] | > 30 | > 30 | 27 ± 1.06 |  | > 30 | > 30 |  |  |  |  |  |
| C=C(C)[C@@H]1CC[C@]2(C(=O)OCc3cnccn3)CC[C@]3(C)[C@H](CC[C@@H]4[C@@]5(C)CCC(=O)C(C)(C)[C@@H]5CC[C@]43C)[C@@H]12 [BoAA, Pyrazin-2-ylmethyl-3-oxolup-20(29)-en-28-oate] | 13.5 ± 1.8 | 8.16 ± 2.08 | 18.3 ± 1.63 |  | > 30 | 15.7 ± 0.55 |  |  |  |  |  |
| N.N.[Cl][Pt][Cl] [DDP, cisplatin, reference compound] |  |  |  |  |  |  | 5.23 ± 1.03 | 8.86 ± 1.32 | 9.84 ± 2.54 | 13.7 ± 1.45 | 6.98 ± 0.32 |
